Source: article PMC4809294, “STP10 encodes a high-affinity monosaccharide transporter and is induced under low-glucose conditions in pollen tubes of Arabidopsis” (Journal of Experimental Botany, 2016)

What was measured:
[1] = molecular target: T1, STP10 (AtSTP10) (Arabidopsis thaliana, UniProt Q9LT15); assay: competition of […]glucose uptake in STP10-expressing yeast; assay type: cell-based; settings: 10 µM [14C]glucose, 10-fold excess (100 µM) unlabelled competitor
T1 sequence (Q9LT15 1-514): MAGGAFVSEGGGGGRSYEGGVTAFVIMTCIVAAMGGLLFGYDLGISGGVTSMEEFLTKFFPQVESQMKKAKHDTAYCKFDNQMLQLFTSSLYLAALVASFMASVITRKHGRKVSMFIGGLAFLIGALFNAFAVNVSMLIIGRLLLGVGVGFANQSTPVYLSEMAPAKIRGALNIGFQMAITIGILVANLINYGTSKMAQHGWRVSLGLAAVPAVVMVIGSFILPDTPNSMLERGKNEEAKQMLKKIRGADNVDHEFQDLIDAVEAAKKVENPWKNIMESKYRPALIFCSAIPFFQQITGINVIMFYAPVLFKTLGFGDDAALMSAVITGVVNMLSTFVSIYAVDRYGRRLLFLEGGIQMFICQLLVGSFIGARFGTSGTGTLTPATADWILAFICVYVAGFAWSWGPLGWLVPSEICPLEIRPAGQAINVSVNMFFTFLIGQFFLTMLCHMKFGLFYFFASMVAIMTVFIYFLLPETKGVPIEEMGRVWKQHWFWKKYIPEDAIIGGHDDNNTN

[2] = molecular target: T1, STP10 (AtSTP10); assay: competition of […]glucose uptake in STP10-expressing yeast; also direct […]galactose uptake; assay type: cell-based; settings: 10 µM [14C]glucose, 10-fold excess (100 µM) unlabelled competitor

Row | Compound | % remaining [14C]glucose uptake [1] | % remaining [14C]glucose uptake [2]
1 | OC[C@H]1OC(O)[C@@H](O)[C@@H](O)[C@@H]1O (some centres unmarked) [mannose] | 64% | –
2 | OC[C@H]1OC(O)[C@H](O)[C@@H](O)[C@H]1O (some centres unmarked) [galactose] | – | 41%
